Assay results published in patent US7879611B2, “System for functional gene discovery in plants” (Agrigenetics Inc, priority 2000, dated 2011).

How the values were obtained:
[1] = system: wild-type cotyledons in Arabidopsis
Description: A salt tolerance screen is performed to identify and isolate gene(s) that confer salt (NaCl) tolerance in Arabidopsis.
A primary screen is conducted with T1 plants, using a germination assay. T1 seed is plated evenly in media supplemented with 250 mM NaCl. For negative and positive controls, wild type (Col-O) seed is plated in plates with and without, respectively, the supplemental NaCl. Plates are incubated for two days at 4° C., then transferred to a growth room and incubated an additional 7 to 14 days.
Salt tolerant germination is classified in five stages: 1) imbibation, emergence of radicle; 2) expansion and greening of cotyledons; 3) elongation of the hypocotyl; 4) elongation of the root and formation of root hairs; 5) development of true leaves.

[2] = system: wild type (Col-0) Arabidopsis; test: Copper tolerance germination assay; assay type: in vivo
Description: A screen for copper tolerance was developed in order to identify and isolate gene(s) whose altered expression confers copper tolerance and allows normal plant growth and development in the presence of an inhibitory level of copper. It has been experimentally determined that the lowest completely inhibitory concentration (LCI) of copper is 160 μM for hypocotyl and cotyledon expansion and the development of true leaves in wild type (Col-0) Arabidopsis.
For the primary screen, pooled T2 lines are plated on media supplemented with 160 μM CuSO4. Controls include wild type (Col-0 cand Shadara) plants germinating on plates with no copper and copper at the Col-0 LCI for germination. Plates are incubated 3 days at 4° C., then transferred to the growth room and incubated an additional 10 days.
Copper sensitivity is evaluated with germination assays, which are performed as described above for salt resistance screens.

Row | Compound | concentration that completely abolishes expansion and green pigmentation of cotyledons [1] | concentration at which negative gravitropism of the hypocotyl is completely inhibited [2] [µM] | concentration at which root elongation is inhibited [2] [µM] | lowest completely inhibitory concentration (LCI) ([2]; hypocotyl and cotyledon expansion and development of true leaves) [µM]
1 | [Cl-].[Na+] [NaCl] | greater than 250 mM | – | – | –
2 | O=S(=O)([O-])[O-].[Cu+2] [copper, CuSO4] | – | 50 | 100 | 160
